Results on 16 compounds are retold here after patent US9920050B2, “Fused heterocyclic compound and pest control use thereof” (Sumitomo Chemical Company, Limited, priority 2013, dated 2018).

Type in all cases: in vivo
In one experiment the test system is Blattella germanica. As to the kind of experiment: Test Example 9: treated filter paper with sucrose bait, Blattella germanica. Conditions: 500 ppm, 0.7 ml on filter paper, male imagoes, after 6 days. As for the experimental part: The formulations of Compounds of Present Invention 9, 15 to 16, 19, 22, 30 to 32, 34, 41 and 45 to 46 as produced in Formulation Example 5 were diluted with water, so as to have a concentration of the active ingredient of 500 ppm, to prepare each test drug solution.
(§1) A filter paper having a diameter of 5.5 cm was spread on the bottom of a polyethylene cup having the same diameter and 0.7 ml of the test drug solution was added dropwise onto the filter paper, and 30 mg of sucrose was uniformly placed as bait. Into the polyethylene cup, 2 male imagoes of Blattella germanica were released, and the cup was sealed with a lid. After 6 days, the life and death of Blattella germanica was examined, the number of dead insects was counted, and the death rate was calculated according to the following equation. Death rate (%)=(Number of dead insects/Number of tested insects)×100

The next experiment deals with Musca domestica. Kind of experiment: Test Example 8: treated filter paper with sucrose bait, Musca domestica. Conditions: 500 ppm, 0.7 ml on filter paper, female imagoes, after 24 hours. How it is done:
The formulations of Compounds of Present Invention 1, 9, 15 to 16, 19, 22, 24, 31 to 32, 34, 41 and 45 to 46 as produced in Formulation Example 5 were diluted with water, so as to have a concentration of the active ingredient of 500 ppm, to prepare each test drug solution.
as §1, with “10 female” for “2 male”, “Musca domestica” for “Blattella germanica”, “24 hours,” for “6 days,”

Experiment [1] concerns Haemaphysalis longicornis. As to the kind of experiment: Test Example 11: coated screw tube contact test, Haemaphysalis longicornis ticks. Conditions: 2 mg compound coated on inner wall of screw tube, unfed nymphal ticks, after 2 days. As for the experimental part:
Two milligrams of each of Compounds of Present Invention 8 to 9, 20, 22 and 31 to 32 was weighed out in a screw tube (Maruemu No. 5; 27×55 mm), and 0.2 mL of acetone was added thereto, and the screw tube was sealed with a cap to dissolve the compound. The screw tube was rotated and inverted to uniformly coat the drug solution onto the whole inner wall of the tube. After removing the cap, the solution was air-dried for about 2 hours, then unfed nymphal ticks, Haemaphysalis longicornis (5 ticks/group) were released, and the tube was sealed with the cap. After 2 days, the number of dead insects was counted, and the death rate was calculated according to the following equation: Death rate (%)=100×(Number of dead insects/Number of tested insects)

Molecules are shown by their SMILES.

In the case of `CCS(=O)(=O)c1ccc(NC2CC2)nc1-c1nc2cc([S+]([O-])C(F)(F)F)ccc2o1` (stereo not drawn) [compound 32], the death rate (in the experiment on Blattella germanica; with Musca domestica; in experiment [1]) was 100% in each case.

In the case of `CCS(=O)(=O)c1cc(NC(=O)C2CCC2)cnc1-c1nc2cc(C(F)(F)F)cnc2n1C` [compound 8], the death rate in experiment [1] worked out at 100%. For the compound `CCS(=O)(=O)c1ccc(NCc2ccc(Cl)nc2)nc1-c1nc2cc([S+]([O-])C(F)(F)F)ccc2o1` (stereo not drawn) [compound 46], the death rate in the experiment with Blattella germanica and with Musca domestica was 100% each time.

`CCS(=O)(=O)c1cc(NCC2CCOC2)cnc1-c1nc2cc(C(F)(F)F)cnc2n1C` (stereo not drawn) [compound 20]: the death rate in experiment [1] is 100%. On to `CCS(=O)(=O)c1cc(NC(=O)C(=O)N(C)C)cnc1-c1nc2cc(C(F)(F)F)cnc2n1C` [compound 16], for which the death rate in the experiment on Blattella germanica and with Musca domestica was 100% throughout. Compound `CCS(=O)(=O)c1cc(NC(=O)OCc2ccccc2)cnc1-c1nc2cc(C(F)(F)F)cnc2n1C` [compound 1] gave a death rate with Musca domestica of 100%. `CCS(CC)=Nc1ccc(S(=O)(=O)CC)c(-c2nc3cc([S+]([O-])C(F)(F)F)ccc3o2)n1` (stereo not drawn) [compound 41]: the death rate in the experiment with Blattella germanica and with Musca domestica was 100% each time. `CCS(=O)(=O)c1cc(NNC(=O)OC)cnc1-c1nc2cc(C(F)(F)F)cnc2n1C` [compound 15]: the death rate in the experiment with Blattella germanica and with Musca domestica was 100% each time. Turning to `CCS(=O)(=O)c1ccc(NC(=O)C2CC2)nc1-c1nc2cc([S+]([O-])C(F)(F)F)ccc2o1` (stereo not drawn) [compound 45], the death rate with Blattella germanica and with Musca domestica was 100% throughout. On to `CCS(=O)(=O)c1ccc(NOC)nc1-c1nc2cc(C(F)(F)F)cnc2n1C` [compound 30], for which, in the experiment with Blattella germanica, the death rate was found to be 100%. In the case of `CCS(=O)(=O)c1cc(NC(=O)C2CC2)cnc1-c1nc2cc(C(F)(F)F)cnc2n1C` [compound 22], the death rate (in the experiment on Blattella germanica; in the experiment with Musca domestica; in experiment [1]) was 100% each time. As to `CCS(=O)(=O)c1ccc(NC2CC2)nc1-c1nc2cc(C(F)(F)F)cnc2n1C` [compound 31], the death rate (with Musca domestica; in experiment [1]) was 100% in each case. Take `CCS(=O)(=O)c1cc(NC(=O)c2ccccn2)cnc1-c1nc2cc(C(F)(F)F)cnc2n1C` [compound 24]: the death rate with Musca domestica is 100%.

Consider `CCS(=O)(=O)c1ccc(NCc2ccccc2)nc1-c1nc2cc([S+]([O-])C(F)(F)F)ccc2o1` (stereo not drawn) [compound 34], for which the death rate in the experiment on Blattella germanica and in the experiment on Musca domestica was 100% throughout. Turning to `CCS(=O)(=O)c1cc(NC2CC2)cnc1-c1nc2cc(C(F)(F)F)cnc2n1C` [compound 9], the death rate (in the experiment with Blattella germanica; in the experiment with Musca domestica; in experiment [1]) was 100% in each case. For `CCS(=O)(=O)c1cc(NN)cnc1-c1nc2cc(C(F)(F)F)cnc2n1C` [compound 19], the death rate in the experiment on Blattella germanica and in the experiment on Musca domestica was 100% each time.
